Experimental data as given in PubChem BioAssay AID248 (DTP/NCI, 2004).
Where “and” joins values, the source holds several entries; their conditions need not be identical. Identical values can stand only once. Inconclusive results and toxic doses are left out. Cut-off read from the data, not from the text of the source: active = T/C of 150% or more; inactive = T/C below 125%.

System: L1210 leukemia ip in BDF1 mice, survival T/C
Experiment: NCI In Vivo Anticancer Drug Screen. Data for tumor model L1210 Leukemia (intraperitoneal) in B6D2F1 (BDF1) mice
Settings: endpoint: mean survival time, higher = longer survival
Outline: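 Survival endpoint. Drug-treated group vs vehicle group, expressed as T divided by C. Tumor passaged by transplantation.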

[1] = dose: 100.0 mg/kg/injection, schedule: Q04DX003 (ip), vehicle: saline with Tween-80
[2] = dose: 200.0 mg/kg/injection, schedule: Q04DX003 (ip), vehicle: saline with Tween-80
[3] = dose: 400.0 mg/kg/injection, schedule: Q04DX003 (ip), vehicle: saline with Tween-80
[4] = dose: 100.0 mg/kg/injection, schedule: Q01DX009 (ip), vehicle: other
[5] = dose: 100.0 mg/kg/injection, schedule: Q04DX003 (ip), vehicle: Klucel (hydroxypropylcellulose) (HPC)
[6] = dose: 200.0 mg/kg/injection, schedule: Q04DX003 (ip), vehicle: Klucel (hydroxypropylcellulose) (HPC)
[7] = dose: 400.0 mg/kg/injection, schedule: Q04DX003 (ip), vehicle: Klucel (hydroxypropylcellulose) (HPC)
[8] = dose: 100.0 mg/kg/injection, schedule: Q01DX009 (ip), vehicle: Klucel (hydroxypropylcellulose) (HPC)
[9] = dose: 200.0 mg/kg/injection, schedule: Q01DX009 (ip), vehicle: Klucel (hydroxypropylcellulose) (HPC)
[10] = dose: 400.0 mg/kg/injection, schedule: Q01DX009 (ip), vehicle: Klucel (hydroxypropylcellulose) (HPC)
[11] = dose: 100.0 mg/kg/injection, schedule: Q01DX001 (ip), vehicle: saline
[12] = dose: 200.0 mg/kg/injection, schedule: Q01DX001 (ip), vehicle: saline
[13] = dose: 400.0 mg/kg/injection, schedule: Q01DX001 (ip), vehicle: saline

Measured: T/C

CCCCCCCCCCCC(=O)[O][Sn]([CH2]c1ccccc1)([CH2]c1ccccc1)[CH2]c1ccccc1
inactive: dose: 0.5 mg/kg/injection, schedule: Q04DX003 (ip), vehicle: other 99 % of control | dose: 0.75 mg/kg/injection, schedule: Q01DX009 (ip), vehicle: other 97 % of control | dose: 1.0 mg/kg/injection, schedule: Q04DX003 (ip), vehicle: other 99 % of control | dose: 1.5 mg/kg/injection, schedule: Q01DX009 (ip), vehicle: other 94 % of control | dose: 3.0 mg/kg/injection, schedule: Q01DX009 (ip), vehicle: other 97 % of control | dose: 3.0 mg/kg/injection, schedule: Q04DX003 (ip), vehicle: other 100 % of control

OC1C=NC(N2CCN(c3ccccc3)CC2)=Cc2ccccc21 (stereo unspecified)
inactive: [1] 97 % of control | [2] 95 % of control | [3] 92 % of control

O=Cc1cccc(CC(O)(C(F)(F)F)C(F)(F)F)n1
inactive: dose: 25.0 mg/kg/injection, schedule: Q01DX009 (ip), vehicle: saline with Tween-80 101 % of control | dose: 50.0 mg/kg/injection, schedule: Q01DX009 (ip), vehicle: saline with Tween-80 101 % of control | dose: 50.0 mg/kg/injection, schedule: Q04DX003 (ip), vehicle: saline with Tween-80 91 % of control | [1] 91 % of control | [2] 104 % of control

CC(=O)N(C)c1cccc(C(=O)O)c1
inactive: [1] 98 % of control | [2] 94 % of control | [3] 98 % of control

COc1cc([N+](=O)[O-])ccc1NC(=O)C(Br)C(Br)C(=O)O (stereo unspecified)
inactive: [4] 94 % of control

CC(=O)OCc1cc(=O)n(C)c2c3c4c(cc12)c(C)cc(=O)n4CO3
inactive: dose: 100.0 mg/kg/injection, schedule: Q01DX001 (ip), vehicle: Klucel (hydroxypropylcellulose) (HPC) 109 % of control | [5] 104 % of control | dose: 200.0 mg/kg/injection, schedule: Q01DX001 (ip), vehicle: Klucel (hydroxypropylcellulose) (HPC) 114 % of control | [6] 117 % of control | dose: 400.0 mg/kg/injection, schedule: Q01DX001 (ip), vehicle: Klucel (hydroxypropylcellulose) (HPC) 118 % of control | [7] 123 % of control

O=C(Nc1ccccc1F)C(c1ccccc1)c1ccccc1
inactive: [8] 103 % of control | [5] 96 % of control | [9] 93 % of control | [6] 95 % of control | [10] 94 % of control | [7] 95 % of control

Cc1ccc(NC(=S)NC(=O)COc2ccccc2)cc1C
inactive: dose: 50.0 mg/kg/injection, schedule: Q01DX001 (ip), vehicle: other 92 % of control | dose: 50.0 mg/kg/injection, schedule: Q01DX009 (ip), vehicle: other 96 % of control and 108 % of control | dose: 50.0 mg/kg/injection, schedule: Q04DX002 (ip), vehicle: other 101 % of control and 116 % of control | dose: 50.0 mg/kg/injection, schedule: Q04DX003 (ip), vehicle: other 95 % of control | dose: 100.0 mg/kg/injection, schedule: Q01DX001 (ip), vehicle: other 97 % of control | [4] 100 % of control and 86 % of control | dose: 100.0 mg/kg/injection, schedule: Q04DX003 (ip), vehicle: other 92 % of control | dose: 200.0 mg/kg/injection, schedule: Q01DX001 (ip), vehicle: other 101 % of control | dose: 200.0 mg/kg/injection, schedule: Q01DX009 (ip), vehicle: other 96 % of control and 90 % of control

Cc1ccc(S(=O)(=O)NC(=O)NCCC(C)C)cc1
inactive: [1] 102 % of control | [2] 100 % of control | [3] 96 % of control

ON=C(CCl)CCl
inactive: dose: 6.25 mg/kg/injection, schedule: Q01DX009 (ip), vehicle: saline 89 % of control | dose: 12.5 mg/kg/injection, schedule: Q01DX001 (ip), vehicle: saline 113 % of control | dose: 25.0 mg/kg/injection, schedule: Q01DX001 (ip), vehicle: saline 98 % of control

COc1ccc(CC(CO)C(CO)Cc2ccc(OC)c(OC)c2)cc1OC (stereo unspecified)
inactive: [8] 97 % of control | [5] 98 % of control | [9] 93 % of control | [6] 101 % of control | [10] 93 % of control | [7] 100 % of control

Cc1cccc(C)c1NS(=O)(=O)c1ccc(Cl)cc1
inactive: [8] 107 % of control | [5] 101 % of control | [9] 88 % of control | [6] 102 % of control | [10] 95 % of control | [7] 98 % of control

COc1ccc(-c2c(CC(=O)O)c3cc(OC)ccc3n2Cc2ccc(Cl)cc2)cc1
inactive: dose: 65.0 mg/kg/injection, schedule: Q01DX Z (ip), vehicle: carboxymethylcellulose (CMC) 94 % of control | dose: 125.0 mg/kg/injection, schedule: Q01DX Z (ip), vehicle: carboxymethylcellulose (CMC) 98 % of control | dose: 250.0 mg/kg/injection, schedule: Q01DX Z (ip), vehicle: carboxymethylcellulose (CMC) 107 % of control | dose: 500.0 mg/kg/injection, schedule: Q01DX Z (ip), vehicle: carboxymethylcellulose (CMC) 94 % of control | dose: 750.0 mg/kg/injection, schedule: Q01DX Z (ip), vehicle: carboxymethylcellulose (CMC) 90 % of control | dose: 875.0 mg/kg/injection, schedule: Q01DX Z (ip), vehicle: carboxymethylcellulose (CMC) 91 % of control

Cc1ccc(O)c[n+]1[O-]
inactive: [11] 94 % of control | [8] 103 % of control | dose: 100.0 mg/kg/injection, schedule: Q04DX003 (ip), vehicle: saline 101 % of control | [12] 97 % of control | [9] 94 % of control | dose: 200.0 mg/kg/injection, schedule: Q04DX003 (ip), vehicle: saline 97 % of control | [13] 100 % of control | [10] 103 % of control | dose: 400.0 mg/kg/injection, schedule: Q04DX003 (ip), vehicle: saline 103 % of control

COC(=O)c1cc(Cl)ccc1OCC(=O)NCc1ccc(Cl)cc1
inactive: [1] 89 % of control | [2] 102 % of control | [3] 88 % of control

CN1C(=O)CCS(=O)(=O)C1c1ccc(Cl)c(Cl)c1 (stereo unspecified)
inactive: dose: 12.5 mg/kg/injection, schedule: Q01DX009 (ip), vehicle: Klucel (hydroxypropylcellulose) (HPC) 101 % of control | dose: 25.0 mg/kg/injection, schedule: Q01DX009 (ip), vehicle: Klucel (hydroxypropylcellulose) (HPC) 114 % of control | dose: 25.0 mg/kg/injection, schedule: Q04DX003 (ip), vehicle: Klucel (hydroxypropylcellulose) (HPC) 105 % of control | dose: 50.0 mg/kg/injection, schedule: Q01DX009 (ip), vehicle: Klucel (hydroxypropylcellulose) (HPC) 103 % of control | dose: 50.0 mg/kg/injection, schedule: Q04DX003 (ip), vehicle: Klucel (hydroxypropylcellulose) (HPC) 100 % of control | [8] 110 % of control | [5] 105 % of control | [9] 104 % of control | [6] 108 % of control

NC(CS)=NC1CCCC1
inactive: dose: 12.5 mg/kg/injection, schedule: Q04DX003 (ip), vehicle: saline 108 % of control | dose: 25.0 mg/kg/injection, schedule: Q04DX003 (ip), vehicle: saline 115 % of control | dose: 50.0 mg/kg/injection, schedule: Q04DX003 (ip), vehicle: saline 112 % of control

COc1cc(-c2cc(=O)c3c(O)cc(O)c(C4OC(CO)C(O)C(O)C4O)c3o2)ccc1O (stereo unspecified)
inactive: dose: 100.0 mg/kg/injection, schedule: Q01DX009 (ip), vehicle: saline 108 % of control | dose: 200.0 mg/kg/injection, schedule: Q01DX009 (ip), vehicle: saline 108 % of control | dose: 400.0 mg/kg/injection, schedule: Q01DX009 (ip), vehicle: saline 103 % of control

COC(=O)C1(C)CCCC2(C)C3CCC4(C)CC3(CCO4)CCC12 (stereo unspecified)
inactive: dose: 200.0 mg/kg/injection, schedule: Q04DX002 (ip), vehicle: Klucel (hydroxypropylcellulose) (HPC) 87 % of control | dose: 400.0 mg/kg/injection, schedule: Q04DX002 (ip), vehicle: Klucel (hydroxypropylcellulose) (HPC) 95 % of control

O=C(CCCC(=O)N/N=C/c1c(Cl)cccc1Cl)N/N=C\c1c(Cl)cccc1Cl
inactive: dose: 50.0 mg/kg/injection, schedule: Q01DX001 (ip), vehicle: saline 100 % of control | [11] 106 % of control | [12] 100 % of control | [13] 103 % of control
